In patent EP0970697A1, “CERVICAL MATURING AGENT” (TORAY INDUSTRIES, INC., priority 1997, dated 1999):
Like-named read-outs stand apart in the source and are kept apart here.

Key:
[1] = tested on: cervical canal; details: mice; high dosage of 100 µg to 200 µg (about 2 to 4 mg per kg of weight) required; cited from earlier work
[2] = tested on: cervical canal; assay: Cervical ripening action (maximum tension and slope in extension of the extracted cervical canal after intravaginal administration); format: in vivo, Hartley mature guinea pigs; details: 10µg, intravaginal administration three times, cervical canal extracted 4 hours after final administration; maximum tension and slope compared with the base administration group, Dunnett's method
Description: The cervical ripening actions of compounds of formula (I) were examined by using Hartley mature guinea pigs (nine-week-old, clean animals).
In order to compare with these compounds, the action of BPS was also tested. Experiment was carried out for 4 to 14 samples per group.
In the test, 100 µl of a test medicine or a base thereof was administered to the vagina at 9 o'clock and 17 o'clock, and 9 o'clock on the next day, and a guinea pig was dissected to extract the cervical canal 4 hours after the final administration. Then, the cervical canal was extended at a rate of 2 mm/min to measure tension generated in the tissue with time. As an index for cervical ripening, the maximum tension generated up to breakage of the tissue, and the slope obtained by dividing the maximum tension by the distance of extension were examined. It is thought that decreases in these values indicate ripening of the cervical canal. A test medicine was dissolved in phosphate buffered saline, and then mixed with 3% hydroxypropyl cellulose.
Figs. 1 and 2 show changes in the maximum tension and the slope, respectively, caused by the test medicines. (*: P < 0.05, **: P < 0.01, Dunnett's method, comparison with the base administration group).

Structure (SMILES) | cervical ripening action [1] | cervical ripening action [2]
CC#CCC(C)[C@H](O)/C=C/[C@@H]1[C@H]2c3cccc(CCCC(=O)O)c3O[C@H]2C[C@H]1O (mixture of isomers) [BPS, beraprost sodium, reference compound] | exhibits a cervical ripening action | no cervical ripening action
O=C(O)COc1cccc2c1OC1CC(O)C(C=CC(O)C3CCCC3)C21 (centres unmarked) [Compound-1] |  | significant cervical ripening action
O=C(O)COc1cccc2c1OC1CC(O)C(C=CC(O)C3CCCCC3)C21 (centres unmarked) [Compound-2] |  | significant cervical ripening action
O=C(O)CCc1cccc2c1O[C@H]1C[C@@H](O)[C@H](/C=C/[C@@H](O)CC3CCCCC3)[C@@H]21 [Compound-3] |  | significant cervical ripening action
